Literature values as cited in patent US10278390B2, “Antimicrobial transparent plastic in the form of film or extruded shape” (priority 2016, dated 2019).

Tested on: bacteria

[Ag+] [silver ions]
concentrations at which the metabolism of bacteria is adversely affected: 0.01 to 0.1 mg/L
